Laboratory results published in ChEMBL document CHEMBL1156695, “The novel primaquine derivatives of N-alkyl, cycloalkyl or aryl urea: synthesis, cytostatic and antiviral activity evaluations” (Eur J Med Chem, 2008).
Calls of active or inactive are those of the source. The rule behind the calls is not given here.

test system: Vaccinia virus; test: Antiviral activity against vaccinia virus infected in HEL cells assessed as reduction of virus-induced cytopathogenicity; type: functional, organism-based; settings: Orthopoxvirus vaccinia

| SMILES | Activity |
| --- | --- |
| CCN(CC)C(=O)NCCCC(C)Nc1cc(OC)cc2cccnc12 (stereo not given) | inactive |
| COc1cc(NC(C)CCCNC(=O)NCC2CCCCC2)c2ncccc2c1 (stereo not given) | inactive |
| COc1cc(NC(C)CCCNC(=O)NC2CCCCC2)c2ncccc2c1 (stereo not given) | inactive |
| COc1cc(NC(C)CCCNC(=O)NCc2ccccc2)c2ncccc2c1 (stereo not given) | inactive |
| COc1cc(NC(C)CCCNC(=O)NC(c2ccccc2)c2ccccc2)c2ncccc2c1 (stereo not given) | inactive |
| COc1cc(NC(C)CCCNC(=O)N(C2CCCCC2)C2CCCCC2)c2ncccc2c1 (stereo not given) | inactive |
| COc1cc(NC(C)CCCNC(=O)NC2CCCC2)c2ncccc2c1 (stereo not given) | inactive |
| COc1cc(NC(C)CCCNC(=O)n2nnc3ccccc32)c2ncccc2c1 (stereo not given) [PRIMAQUINE BENZOTRIAZOLIDE] | inactive |
| COc1cc(NC(C)CCCNC(=O)NCCc2ccccc2)c2ncccc2c1 (stereo not given) | inactive |
| COc1cc(NC(C)CCCNC(=O)NCc2ccncc2)c2ncccc2c1 (stereo not given) | inactive |
